Data reported in ChEMBL document CHEMBL5230103, “Hydroxamic acid hybrids as the potential anticancer agents: An Overview” (Eur J Med Chem, 2020).
pIC50: −log10 of the molar value. Converted amounts (≈) assume the structure as drawn. One block for each compound: values may come before it.

Experiments:
[1] = system: MV4-11; experiment: Cytotoxicity against human MV4-11 cells assessed as inhibition of cell growth by SRB assay; type: functional, cell-based
[2] = target: Histone deacetylase; experiment: Inhibition of HDAC (unknown origin); type: protein assay, Homo sapiens
[3] = system: PC-3; experiment: Cytotoxicity against human PC-3 cells assessed as inhibition of cell growth by SRB assay; type: functional, cell-based
[4] = system: HepG2; experiment: Cytotoxicity against human HepG2 cells assessed as inhibition of cell growth by MTT assay; type: functional, cell-based
[5] = system: MCF7; experiment: Cytotoxicity against human MCF7 cells assessed as inhibition of cell growth by MTT assay; type: functional, cell-based
[6] = system: HCT-116; experiment: Cytotoxicity against human HCT-116 cells assessed as inhibition of cell growth by MTT assay; type: functional, cell-based
[7] = system: PC-3; experiment: Cytotoxicity against human PC-3 cells assessed as inhibition of cell growth by MTT assay; type: functional, cell-based
[8] = system: SW-620; experiment: Potency index, ratio of vorinostat IC50 to test compound IC50 for cytotoxicity against human SW620 cells assessed as inhibition of cell growth by MTT assay; type: functional
[9] = system: PC-3; experiment: Potency index, ratio of vorinostat IC50 to test compound IC50 for cytotoxicity against human PC-3 cells assessed as inhibition of cell growth by MTT assay; type: functional
[10] = system: SW-620; experiment: Cytotoxicity against human SW620 cells assessed as inhibition of cell growth by MTT assay; type: functional, cell-based
[11] = system: NCI-H23; experiment: Potency index, ratio of vorinostat IC50 to test compound IC50 for cytotoxicity against human NCI-H23 cells assessed as inhibition of cell growth by MTT assay; type: functional
[12] = system: NCI-H23; experiment: Cytotoxicity against human NCI-H23 cells assessed as inhibition of cell growth by MTT assay; type: functional, cell-based
[13] = system: RPMI-8226; experiment: Cytotoxicity against human RPMI-8226 cells assessed as inhibition of cell growth by MTS assay; type: functional, cell-based
[14] = system: HL-60; experiment: Antiproliferative activity against human HL-60 cells assessed as inhibition of cell growth by MTT assay; type: functional, cell-based
[15] = system: MCF7; experiment: cells; type: functional, cell-based; details: Homo sapiens, MCF7, 72 h
Description: Cytotoxicity against human MCF7 cells assessed as inhibition of cell growth measured after 72 hrs by MTT assay

[16] = system: U2OS; experiment: cells; type: functional, cell-based; details: Homo sapiens, 72 h
Description: Cytotoxicity against human U2OS cells assessed as inhibition of cell growth measured after 72 hrs by MTT assay

[17] = system: HepG2; experiment: Cytotoxicity against human HepG2 cells assessed as inhibition of cell growth measured after 72 hrs by MTT assay; type: functional, cell-based; details: HepG2, 72 h
[18] = system: ASPC1; experiment: Cytotoxicity against human ASPC1 cells assessed as inhibition of cell growth by MTT assay; type: functional, cell-based
[19] = target: Histone deacetylase 2 (Homo sapiens, UniProt Q92769); experiment: Inhibition of HDAC2 (unknown origin)
[20] = system: MDA-MB-231; experiment: Cytotoxicity against human MDA-MB-231 cells assessed as inhibition of cell growth by MTT assay; type: functional, cell-based
[21] = system: K562; experiment: Cytotoxicity against human K562 cells assessed as inhibition of cell growth by MTT assay; type: functional, cell-based
[22] = system: A549; experiment: Cytotoxicity against human A549 cells assessed as inhibition of cell growth by MTT assay; type: functional, cell-based

Sequence of Histone deacetylase 2 (Q92769 whole entry): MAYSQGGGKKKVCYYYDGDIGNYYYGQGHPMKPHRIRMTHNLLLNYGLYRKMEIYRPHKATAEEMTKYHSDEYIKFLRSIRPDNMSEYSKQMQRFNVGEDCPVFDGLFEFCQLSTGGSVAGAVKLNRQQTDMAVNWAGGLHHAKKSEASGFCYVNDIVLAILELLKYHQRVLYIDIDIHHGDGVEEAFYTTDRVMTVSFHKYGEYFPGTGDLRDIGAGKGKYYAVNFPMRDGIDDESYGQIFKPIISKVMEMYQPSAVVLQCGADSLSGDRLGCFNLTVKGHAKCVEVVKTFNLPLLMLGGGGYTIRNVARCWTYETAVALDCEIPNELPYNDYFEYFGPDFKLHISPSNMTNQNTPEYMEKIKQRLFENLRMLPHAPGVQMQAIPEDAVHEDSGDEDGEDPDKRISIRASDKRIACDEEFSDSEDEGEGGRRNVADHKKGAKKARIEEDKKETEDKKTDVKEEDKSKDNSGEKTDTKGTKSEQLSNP

IC50 [2]: 35 nM
Structure (SMILES): CC(C)n1cnc2c(-c3cccc(OCCCCCCC(=O)NO)c3)nc(N3CCOCC3)nc21
pIC50 [1]: 6.80
pIC50 [3]: 6.80

IC50 [2]: 35 nM
Structure (SMILES): CC(C)n1cnc2c(-c3cccc(COCCCCCCC(=O)NO)c3)nc(N3CCOCC3)nc21
pIC50 [1]: 6.80
pIC50 [3]: 6.80

IC50 [2]: 150 nM
Structure (SMILES): O=C(/C=C/c1ccc(Cn2cnc3cc(F)ccc3c2=O)cc1)NO
pIC50 [7]: 6.21
Ratio IC50 [8]: >3
Ratio IC50 [9]: >3
pIC50 [10]: 6.21
Ratio IC50 [11]: >3
pIC50 [12]: 6.21

IC50 [2]: 35 nM
Structure (SMILES): CC(C)n1cnc2c(-c3cccc(COCCCCCCCC(=O)NO)c3)nc(N3CCOCC3)nc21
pIC50 [1]: 6.80
pIC50 [3]: 6.80

IC50 [2]: 278 nM
Structure (SMILES): CC(C)n1cnc2c(-c3ccc(OCCCCCCC(=O)NO)cc3)nc(N3CCOCC3)nc21
pIC50 [1]: 6.01
pIC50 [3]: 6.01

pIC50 [15]: 5.80
pIC50 [16]: 5.80
Structure (SMILES): COc1cc(NC(C)CCCCCCNC(=O)CCC(=O)NO)c2ncccc2c1 (stereo unspecified)
pIC50 [17]: 5.80

pIC50 [19]: 7.52
Structure (SMILES): COc1ccc2c(c1)C1(OCCO1)C(=O)N2CCCCCCC(=O)NO
pIC50 [7]: 7.30
pIC50 [18]: 7.30
pIC50 [10]: 7.30

IC50 [2]: 278 nM
Structure (SMILES): CC(C)n1cnc2c(-c3ccc(OCCCCCC(=O)NO)cc3)nc(N3CCOCC3)nc21
pIC50 [1]: 6.01
pIC50 [3]: 6.01

IC50 [2]: 200 nM
Structure (SMILES): O=C(CCC(=O)Nc1nnc(-c2ccc(Cl)cc2)s1)NO
pIC50 [7]: 4.83
pIC50 [20]: 4.83
pIC50 [21]: 4.83
pIC50 [22]: 4.83

Continued, compound first:

Structure (SMILES): CC(C)n1cnc2c(-c3ccc(COCCCCCCCC(=O)NO)cc3)nc(N3CCOCC3)nc21
pIC50 [1]: 6.01
IC50 [2]: 278 nM
pIC50 [3]: 6.01

Structure (SMILES): O=C(CCCCCCn1cnc2c(c1=O)C1CCCCC1S2)NO (stereo unspecified)
pIC50 [4]: 5.48
pIC50 [5]: 5.48
pIC50 [6]: 5.48

Structure (SMILES): O=C(CCCCCCCn1cnc2c(c1=O)C1CCCCC1S2)NO (stereo unspecified)
pIC50 [4]: 5.48
pIC50 [5]: 5.48
pIC50 [6]: 5.48

Structure (SMILES): CC(C)n1cnc2c(-c3ccc(OCC(=O)NO)cc3)nc(N3CCOCC3)nc21
pIC50 [1]: 6.01
IC50 [2]: 278 nM
pIC50 [3]: 6.01

Structure (SMILES): CCCCCCSc1ncc(C(=O)NO)c(N(Cc2ccccc2)S(=O)(=O)c2ccc(OC)cc2)n1
pIC50 [13]: < 5.11

Structure (SMILES): CC(C)n1cnc2c(-c3ccc(COCCCCCC(=O)NO)cc3)nc(N3CCOCC3)nc21
pIC50 [1]: 6.01
IC50 [2]: 278 nM
pIC50 [3]: 6.01

Structure (SMILES): C[C@H]1[C@@H](NC(=O)CCCCCCCC(=O)NO)O[C@@H]2O[C@@]3(C)CC[C@H]4[C@H](C)CC[C@@H]1[C@@]24OO3
IC50 [14]: 1.28 µg/mL (≈ 2.73 µM)
IC50 [4]: 1.28 µg/mL
IC50 [5]: 1.28 µg/mL

Structure (SMILES): O=C(Cn1cnc2c(c1=O)C1CCCCC1S2)NCc1ccc(C(=O)NO)cc1 (stereo unspecified)
pIC50 [4]: 5.31
pIC50 [5]: 5.31
pIC50 [6]: 5.31

Structure (SMILES): O=C(CCCCCCC(=O)Nc1nnc(-c2ccc(Br)o2)s1)NO
pIC50 [7]: 6.06
pIC50 [18]: 6.06
pIC50 [5]: 6.06
pIC50 [10]: 6.06

Structure (SMILES): Cc1nc2ccc(Cl)cc2c(=O)n1Cc1ccc(C(=O)NO)cc1
pIC50 [7]: 6.21
IC50 [2]: 760 nM
Ratio IC50 [8]: >3
Ratio IC50 [9]: >3
pIC50 [10]: 6.21
Ratio IC50 [11]: >3
pIC50 [12]: 6.21

Structure (SMILES): COc1ccc(/C=C/C(=O)c2ccc(OCC(=O)NO)cc2)cc1
pIC50 [4]: 6.21
pIC50 [5]: 6.21
pIC50 [6]: 6.21

Structure (SMILES): CC(C)c1ccc(C(C)c2nnc(NC(=O)CCC(=O)NO)s2)cc1 (stereo unspecified)
pIC50 [7]: 4.83
IC50 [2]: 200 nM
pIC50 [20]: 4.83
pIC50 [21]: 4.83
pIC50 [22]: 4.83

Structure (SMILES): CC(C)n1cnc2c(-c3cccc(COCC(=O)NO)c3)nc(N3CCOCC3)nc21
pIC50 [1]: 6.80
IC50 [2]: 35 nM
pIC50 [3]: 6.80

Structure (SMILES): CC(C)n1cnc2c(-c3ccc(COCC(=O)NO)cc3)nc(N3CCOCC3)nc21
pIC50 [1]: 6.01
IC50 [2]: 278 nM
pIC50 [3]: 6.01

Structure (SMILES): Cc1ccc2c(=O)n(Cc3ccc(/C=C/C(=O)NO)cc3)cnc2c1
pIC50 [7]: 6.21
IC50 [2]: 170 nM
Ratio IC50 [8]: >3
Ratio IC50 [9]: >3
pIC50 [10]: 6.21
Ratio IC50 [11]: >3
pIC50 [12]: 6.21

Structure (SMILES): O=C(CCC(=O)Nc1nnc(-c2ccc(O)cc2)s1)NO
pIC50 [7]: 4.83
IC50 [2]: 200 nM
pIC50 [20]: 4.83
pIC50 [21]: 4.83
pIC50 [22]: 4.83

Structure (SMILES): CC(C)n1cnc2c(-c3cccc(COCCCCC(=O)NO)c3)nc(N3CCOCC3)nc21
pIC50 [1]: 6.80
IC50 [2]: 35 nM
pIC50 [3]: 6.80
